We go through 1 molecule from US20200290950A1, “ALKAMIDE COMPOUNDS AND USES THEREOF” (NORTH CAROLINA STATE UNIVERSITY, priority 2017, published 2020).

Data set [1] relates to RBL-2H3 cells. The data set can be described thus: β-hexosaminidase degranulation assay, RBL-2H3 cells (Example 1). It counts as cell-based, rat. On the procedure:
FIGS. 1A-1F. A15 inhibits BMMC and RBL-2H3 cell degranulation. The structure of alkamide A15 is shown with different functional groups and carbons in the fatty acid chain labeled (FIG. 1A). BMMCs were plated and stimulated 4 hrs later with 1 μM A23187 and the indicated concentrations of A15 or vehicle only. The percent degranulation was measured after 1 hr (FIG. 1B). RBL-2H3 cells were treated with A23187 and the percent degranulation was determined 1 hr later (FIG. 1C) or every 10 min over a 1 hr time course (FIG. 1D). RBL-2H3 cells were plated and incubated for 4 hrs before the media was aspirated and replaced with media containing 1 μg/mL IgE anti-DNP. Cells were incubated overnight and washed prior to stimulation. […] RBL-2H3 cells were stimulated for 1 hr in Tyrode's buffer before supernatants were collected and levels of histamine were measured using a competitive inhibition EIA kit (FIG. 1F). […]
FIGS. 5A-5D. […] Percent degranulation was measured 1 hr after stimulation with 1 μM A23187 in combination with vehicle only or 25 μg/mL of the indicated E. purpurea samples. […] RBL-2H3 cells were loaded with fluo-4 AM using the Fluo-4 AM Direct™ Calcium Assay Kit and fluorescence was measured on a microplate reader. […]
RBL-2H3 cell and BMMC degranulation was measured using a β-hexosaminidase (β-hex) activity assay. […] Absorbance was read at 405 nm on a BioTek Synergy HT microplate reader. […]

The test system of data set [2] is RBL-2H3 cells. The data set can be described thus: LDH cytotoxicity assay. The conditions noted are these: overnight treatment. It counts as cell-based, rat. On the procedure:
FIG. 7. A15 is not cytotoxic to RBL-2H3 cells. RBL-2H3 cells were plated and incubated overnight prior to stimulation. Cells were treated overnight with the indicated concentrations of A15 10 μg/mL cycloheximide as a positive control. Supernatants were collected and analyzed for LDH release using the Pierce LDH Cytotoxicity Kit. […] Statistical analysis was performed using a one-way ANOVA with Dunnett's post-hoc test, ***p<0.001.
RBL-2H3 cells were seeded into 96-well plates and incubated overnight prior to treatment with a range of A15 concentrations or 10 μg/mL cycloheximide. Supernatants were collected after 18 hr and analyzed for lactate dehydrogenase (LDH) activity using the commercially available Pierce LDH Cytotoxicity Assay Kit according to the manufacturer's instructions (Thermo Fisher Scientific). Briefly, in a 96-well plate, 50 μL of supernatant were incubated with 50 μL of reaction mixture containing a tetrazolium salt that is reduced to formazan in the presence LDH for 30 min protected from light. 50 μL of stop solution was added, and the absorbance was read at 490 nm with absorbance at 690 nm subtracted to remove background absorbance. LDH release from vehicle treated cells was used to determine spontaneous LDH release. Additionally, lysis buffer was used to determine maximum LDH release.

Each structure is given as a SMILES string.

By inhibition is commonly meant the drop in the measured response relative to a control, in per cent. Turning to `CCCCCCC/C=C/C=C/C(=O)NCC(C)C` [A15, (2E,4E)-N-Isobutyldodeca-2,4-dienamide], the degranulation result in the data set with RBL-2H3 cells [1] (RBL-2H3 cells activated by IgE anti-DNP and DNP-BSA) is given as “inhibited degranulation”. Also, in the data set with RBL-2H3 cells [1] (Rattus norvegicus, A23187-stimulated RBL-2H3 cells, 100 μM, 1 hr, read-out: inhibition of release of β-hex), the inhibition at 100 µM turned out to be 48.4%. Also, in the data set with RBL-2H3 cells [2], the “cytotoxic activity (LDH release)” value is given as “no significant cytotoxic activity”.
